Test results reported in PMC5298231, “The Malaria Parasite's Lactate Transporter PfFNT Is the Target of Antiplasmodial Compounds Identified in Whole Cell Phenotypic Screens” (PLoS Pathogens, 2017).
pIC50: −log10 of the molar value. Peptide text beside a SMILES is read from it.

What was measured:
[1] = tested on: 3D7 parasites; details: ref [1] Van Voorhis et al. 2016; read-out: IC50 for killing of 3D7 parasites; cited from earlier work
[2] = tested on: isolated 3D7 P. falciparum trophozoites; assay: L-[14C]lactate uptake by isolated 3D7 trophozoites; details: 50 μM; pH 6.1, 4°C; control (DMSO) 6.7 ± 0.4; mean ± SEM
[3] = tested on: Dd2 parental parasites; assay: L-[14C]lactate uptake by isolated Dd2 parental parasites; details: 100 μM; parental parasites; pH 6.1, 4°C
[4] = tested on: PfFNT^Gly107Ser mutant parasites (MMV007839-selected culture B); assay: L-[14C]lactate uptake by isolated PfFNT Gly107Ser mutant parasites; details: 100 μM, pH 6.1, 4°C
[5] = tested on: erythrocytes infected with 3D7 trophozoites; type: cell-based, Plasmodium falciparum; details: sheet Ratio; for Ratio of metabolite abundance, Exp1_1hr: Exp1, 1hr; for Ratio of metabolite abundance, Exp1_3hr: Exp1, 3hr; for Ratio of metabolite abundance, Exp1_6hr: Exp1, 6hr; for Ratio of metabolite abundance, Exp2_1hr: Exp2, 1hr; for Ratio of metabolite abundance, Exp2_3hr: Exp2, 3hr; for Ratio of metabolite abundance, Exp2_6hr: Exp2, 6hr; for Ratio of metabolite abundance, Exp3_1hr: Exp3, 1hr; for Ratio of metabolite abundance, Exp3_3hr: Exp3, 3hr; for Ratio of metabolite abundance, Exp3_6hr: Exp3, 6hr

Structure (SMILES)	pIC50 [1]	L-[14C]lactate distribution ratio at 20 s [2]	Effect on rate of L-[14C]lactate influx [3]	Effect on rate of L-[14C]lactate influx [4]	Ratio of metabolite abundance, Exp1_1hr [5]	Ratio of metabolite abundance, Exp1_3hr [5]	Ratio of metabolite abundance, Exp1_6hr [5]	Ratio of metabolite abundance, Exp2_1hr [5]	Ratio of metabolite abundance, Exp2_3hr [5]	Ratio of metabolite abundance, Exp2_6hr [5]	Ratio of metabolite abundance, Exp3_1hr [5]	Ratio of metabolite abundance, Exp3_3hr [5]	Ratio of metabolite abundance, Exp3_6hr [5]
Brc1ccc(Nc2nc3ccccc3nc2Nc2ccc(Br)cc2)cc1 [MMV007224]	5.97	–	–	–	–	–	–	–	–	–	–	–	–
O=C(Nc1ccc(F)c(Cl)c1)Nc1ccc(Cl)c(Cl)c1 [MMV665953]	5.69	–	–	–	–	–	–	–	–	–	–	–	–
CCCCNc1nc(NC(C)(C)C)nc(NC(C)(C)C)n1 [MMV665864]	6.15	–	–	–	–	–	–	–	–	–	–	–	–
CC(C)OCc1cc(CN2CCN(c3cccc(Cl)c3)CC2)c(O)c2ncccc12 [MMV000788]	6.15	–	–	–	–	–	–	–	–	–	–	–	–
O=C(Cc1ccccc1)NC(c1ccc(Cl)cc1)c1c(O)ccc2ccccc12 (stereo not drawn) [MMV665972]	5.94	–	–	–	–	–	–	–	–	–	–	–	–
Cc1ccc(Nc2nc(-c3ccccn3)cs2)cc1 [MMV007907]	6.46	–	–	–	–	–	–	–	–	–	–	–	–
O=C(Nc1nc(-c2ccccn2)cs1)c1ccccc1Br [MMV665909]	5.87	–	–	–	–	–	–	–	–	–	–	–	–
Cc1cccc(-n2ncc3c(O)nc(-n4nc(C)cc4NC(=O)c4cc5ccccc5o4)nc32)c1 [MMV403679]	6.03	–	–	–	–	–	–	–	–	–	–	–	–
O=C(Nc1ccc(Cl)c(Cl)c1)Nc1ccc(Cl)c(Cl)c1 [MMV665852]	5.94	–	–	–	–	–	–	–	–	–	–	–	–
O=C(O)c1cc([N+](=O)[O-])ccc1NCCCc1ccccc1 [NPPB, reference compound]	–	0.4 ± 0.1	reduced the rate	reduced the rate	–	–	–	–	–	–	–	–	–
O=C(NC(c1ccccc1)c1ccc2cccnc2c1O)c1ccccc1 (stereo not drawn) [MMV666080]	5.93	–	–	–	–	–	–	–	–	–	–	–	–
CCCCCCc1cc(O)c2c3c(c(=O)oc2c1)CCC(C)C3 (stereo not drawn) [MMV665987]	6.28	–	–	–	–	–	–	–	–	–	–	–	–
O=C(COP(=O)(O)O)[C@@H](O)[C@H](O)[C@H](O)[C@H](O)COP(=O)(O)O [Sedoheptoluse bisphosphate]	–	–	–	–	2.263	0.7031	0.6514	1.522	1.277	0.7611	1.031	0.8186	0.6336
O=c1ccn([C@@H]2O[C@H](COP(=O)(O)OP(=O)(O)O)[C@@H](O)[C@H]2O)c(=O)[nH]1 [UDP]	–	–	–	–	0.7834	0.4305	0.5124	1.213	0.7051	0.7343	0.7602	0.7434	0.9366
O=c1ccn([C@H]2C[C@H](O)[C@@H](COP(=O)(O)O)O2)c(=O)[nH]1 [dUMP]	–	–	–	–	3.473	5.178	2.302	3.524	1.859	4.376	1.122	1.775	0.8871
O=C(O)C[C@H](NC(=O)[C@@H]1CCCN1)C(=O)O [PD] (H-Pro-Asp-OH)	–	–	–	–	1.093	0.9772	1.538	1.264	1.209	2.9187	1.287	1.3146	2.682
CC(C)C[C@H](NC(=O)[C@@H](N)Cc1cnc[nH]1)C(=O)N[C@@H](CC(=O)O)C(=O)O [HLD] (H-His-Leu-Asp-OH)	–	–	–	–	0.6785	0.3938	1.496	0.9181	0.5663	1.359	0.7775	0.6588	1.57
CC(C)[C@H](NC(=O)[C@@H]1CCCN1C(=O)[C@@H]1CCCN1)C(=O)N[C@@H](CCC(N)=O)C(=O)O [PPVQ] (H-PPVQ-OH)	–	–	–	–	1.0595	0.6401	0.763	1.014	0.8051	0.8204	0.973	0.9388	0.9472
FC(F)(F)c1cccc(Nc2nc3ccccc3nc2Nc2cccc(C(F)(F)F)c2)c1 [MMV665794]	6.51	–	–	–	–	–	–	–	–	–	–	–	–
CC(C)C[C@H](N)C(=O)N[C@@H](CC(=O)O)C(=O)O [LD] (H-Leu-Asp-OH)	–	–	–	–	1.295	0.7458	0.9103	1.486	1.077	1.185	1.151	1.268	1.201
CC(C)C[C@H](NC(=O)[C@@H](N)CC(=O)O)C(=O)N[C@@H](CO)C(=O)O [DLS] (H-Asp-Leu-Ser-OH)	–	–	–	–	0.4981	0.5494	0.8725	0.8907	0.8658	1.124	0.9354	0.5821	0.7887
Nc1nc2c(ncn2[C@@H]2O[C@H](COP(=O)(O)O)[C@@H](O)[C@H]2O)c(=O)[nH]1 [GMP]	–	–	–	–	0.2584	0.2388	0.4652	0.6356	0.2451	0.4274	0.5874	0.5355	0.8077
N[C@@H](CCC(=O)O)C(=O)O [Glutamate]	–	–	–	–	1.14	0.9816	0.9735	1.0715	0.9058	0.8408	1.009	0.9619	1.158
Nc1ncnc2c1ncn2[C@@H]1O[C@H](CSCC[C@H](N)C(=O)O)[C@@H](O)[C@H]1O [S-Adenosyl-L-homocysteine]	–	–	–	–	0.9683	0.7021	0.8395	0.9429	0.8753	1.175	0.839	0.8468	0.8042
CC(C)[C@H](NC(=O)[C@H](C)NC(=O)[C@@H]1CCCN1)C(=O)N[C@@H](Cc1c[nH]cn1)C(=O)O [PAVH]	–	–	–	–	0.3897	0.1614	0.8308	0.6106	0.3696	0.9246	0.514	0.3038	1.108
CC(C)C[C@H](NC(=O)[C@H](C)NC(=O)[C@@H](N)CC(=O)O)C(=O)N[C@H](C(=O)O)[C@@H](C)O [DALT] (H-DALT-OH)	–	–	–	–	0.634	0.4153	1.635	0.755	0.5469	1.439	0.7343	0.6802	1.903
O=C(O)CCC(O)C(=O)O (stereo not drawn) [2-Hydroxyglutarate]	–	–	–	–	0.7468	0.6009	0.699	0.8783	0.8007	0.7015	0.9193	0.5841	0.9208
